For one assay, the system named is S. paratyphi 11737. Briefly: In vitro antibacterial activity (MIC), S. paratyphi 11737. The format is cell-based. The conditions noted are these: Salmonella enterica, 18 h.
In the next assay the test system is E. coli 9637. The assay is described as follows: In vitro antibacterial activity (MIC), E. coli 9637. Particulars: Escherichia coli, 9637, 18 h.
The next assay deals with S. aureus Smith. Briefly: In vitro antibacterial activity (MIC), S. aureus Smith. Particulars: Staphylococcus aureus, 18 h.
The subject of the next assay is S. aureus 53-180. The assay is described as follows: In vitro antibacterial activity (MIC), S. aureus 53-180. Particulars: Staphylococcus aureus, 53180, 18 h.
For another assay, the system named is P. vulgaris 6896. Briefly: In vitro antibacterial activity (MIC), P. vulgaris 6896. Particulars: Proteus vulgaris, 6896, 18 h.
Another assay deals with N. catarrhalis 8193. Briefly: In vitro antibacterial activity (MIC), N. catarrhalis 8193. The conditions noted are these: 18 h.
The test system of another assay is K. pneumoniae 10031. The assay is described as follows: In vitro antibacterial activity (MIC), K. pneumoniae 10031. Particulars: Klebsiella pneumoniae, 10031, 18 h.

These results are taken from patent US4118561A, “7-(Substituted)-7H-pyrrolo[3,2-f]quinazoline-1,3-diamines” (priority 1977, dated 1978).

≈ marks a conversion by molar mass, not a printed value. A value given as a limit tells only on which side of the number the result lay.

As usually defined, the MIC is the lowest concentration found to suppress growth. Low values mean a more susceptible organism, high ones a less susceptible organism. For `Nc1nc(N)c2c(ccc3[nH]ccc32)n1` [Example 1, 7-H-Pyrrolo[3,2-f]quinazoline-1,3-diamine], the MIC amounted to 31.3 µg/mL (≈ 157 µM) in the assay on S. paratyphi 11737; 3.9 µg/mL (≈ 19.6 µM) against E. coli 9637; 31.3 µg/mL (≈ 157 µM) against S. aureus Smith; 31.3 µg/mL (≈ 157 µM) against S. aureus 53-180; 15.6 µg/mL (≈ 78.3 µM) against P. vulgaris 6896; 0.244 µg/mL (≈ 1.22 µM) in the assay on N. catarrhalis 8193. The compound further displayed an MIC against K. pneumoniae 10031 of 7.81 µg/mL (≈ 39.2 µM).

Consider `Nc1nc(N)c2c(ccc3c2ccn3Cc2ccc(C(F)(F)F)cc2)n1` [Example 13], for which the MIC in the assay with S. paratyphi 11737 was determined as 15.6 µg/mL (≈ 43.7 µM); in the assay on E. coli 9637, 3.9 µg/mL (≈ 10.9 µM); against S. aureus Smith, 1.95 µg/mL (≈ 5.46 µM); in the assay with S. aureus 53-180 it was 0.976 µg/mL (≈ 2.73 µM); against P. vulgaris 6896, 31.3 µg/mL (≈ 87.6 µM); against N. catarrhalis 8193, 0.031 µg/mL (≈ 0.0868 µM). In addition, in the assay with K. pneumoniae 10031, the lowest concentration to inhibit growth (MIC) was 0.976 µg/mL (≈ 2.73 µM).

In the case of `Cc1cccc(C)c1Cn1ccc2c3c(N)nc(N)nc3ccc21` [Example 24], the MIC with S. paratyphi 11737 is > 250 µg/mL; in the assay on E. coli 9637, 250 µg/mL (≈ 788 µM); against S. aureus Smith, 250 µg/mL (≈ 788 µM); in the assay on S. aureus 53-180, 250 µg/mL (≈ 788 µM); against P. vulgaris 6896 it was > 250 µg/mL; against N. catarrhalis 8193, 0.122 µg/mL (≈ 0.384 µM). The MIC against K. pneumoniae 10031 worked out at 15.6 µg/mL (≈ 49.1 µM).

On to `Cc1cc(C)cc(Cn2ccc3c4c(N)nc(N)nc4ccc32)c1` [Example 26], for which the MIC with S. paratyphi 11737 was determined as 15.6 µg/mL (≈ 49.1 µM); with E. coli 9637 it was 7.81 µg/mL (≈ 24.6 µM); in the assay with S. aureus Smith, 0.976 µg/mL (≈ 3.08 µM); in the assay with S. aureus 53-180 it was 0.488 µg/mL (≈ 1.54 µM); in the assay on P. vulgaris 6896, 15.6 µg/mL (≈ 49.1 µM); in the assay on N. catarrhalis 8193, 0.031 µg/mL (≈ 0.0977 µM). The compound further returned an MIC in the assay on K. pneumoniae 10031 of 0.244 µg/mL (≈ 0.769 µM).

Turning to `Cc1cc(C)c(C)c(Cn2ccc3c4c(N)nc(N)nc4ccc32)c1C` [Example 28], the MIC against S. paratyphi 11737 is > 250 µg/mL; against E. coli 9637 it was > 250 µg/mL; with S. aureus Smith, 15.6 µg/mL (≈ 45.2 µM); against S. aureus 53-180 it was 15.6 µg/mL (≈ 45.2 µM); against P. vulgaris 6896, > 250 µg/mL; with N. catarrhalis 8193, 0.244 µg/mL (≈ 0.706 µM). The compound also registered an MIC against K. pneumoniae 10031 of 3.9 µg/mL (≈ 11.3 µM).

With `COc1cccc(Cn2ccc3c4c(N)nc(N)nc4ccc32)c1OC` [Example 35], the MIC was determined as 15.6 µg/mL (≈ 44.6 µM) in the assay on S. paratyphi 11737; 0.488 µg/mL (≈ 1.4 µM) against E. coli 9637; 0.488 µg/mL (≈ 1.4 µM) against S. aureus Smith; 0.244 µg/mL (≈ 0.698 µM) with S. aureus 53-180; 7.81 µg/mL (≈ 22.4 µM) with P. vulgaris 6896; 0.122 µg/mL (≈ 0.349 µM) in the assay with N. catarrhalis 8193. Moreover, the MIC in the assay with K. pneumoniae 10031 was 0.488 µg/mL (≈ 1.4 µM).

For `COc1ccc(OC)c(Cn2ccc3c4c(N)nc(N)nc4ccc32)c1` [Example 36], the MIC against S. paratyphi 11737 amounted to 3.9 µg/mL (≈ 11.2 µM); against E. coli 9637, 0.976 µg/mL (≈ 2.79 µM); with S. aureus Smith it was 0.244 µg/mL (≈ 0.698 µM); in the assay with S. aureus 53-180, 0.122 µg/mL (≈ 0.349 µM); in the assay with P. vulgaris 6896 it was 3.9 µg/mL (≈ 11.2 µM); in the assay on N. catarrhalis 8193 it was 0.031 µg/mL (≈ 0.0887 µM). Moreover, inhibition of growth in the assay on K. pneumoniae 10031 (MIC) required 0.031 µg/mL (≈ 0.0887 µM).

Regarding `CCOc1ccc(Cn2ccc3c4c(N)nc(N)nc4ccc32)cc1` [Example 40], the MIC in the assay with S. paratyphi 11737 was 7.81 µg/mL (≈ 23.4 µM); against E. coli 9637, 1.95 µg/mL (≈ 5.85 µM); in the assay with S. aureus Smith, 1.95 µg/mL (≈ 5.85 µM); with S. aureus 53-180 it was 0.488 µg/mL (≈ 1.46 µM); in the assay with P. vulgaris 6896, 7.81 µg/mL (≈ 23.4 µM); in the assay with N. catarrhalis 8193, 0.122 µg/mL (≈ 0.366 µM). This compound also registered an MIC in the assay on K. pneumoniae 10031 of 3.9 µg/mL (≈ 11.7 µM).

Turning to `Nc1nc(N)c2c(ccc3c2ccn3Cc2cscn2)n1` [Example 42], the MIC is 0.976 µg/mL (≈ 3.29 µM) against S. paratyphi 11737; 0.244 µg/mL (≈ 0.823 µM) in the assay on E. coli 9637; 0.488 µg/mL (≈ 1.65 µM) in the assay on S. aureus Smith; 0.244 µg/mL (≈ 0.823 µM) against S. aureus 53-180; 0.976 µg/mL (≈ 3.29 µM) in the assay on P. vulgaris 6896; 0.0038 µg/mL (≈ 0.0128 µM) against N. catarrhalis 8193. Inhibition of growth in the assay with K. pneumoniae 10031 (MIC) required 0.122 µg/mL (≈ 0.412 µM).

Regarding `Nc1nc(N)c2c(ccc3c2ccn3Cc2csc3ccccc23)n1` [Example 46], the MIC was > 250 µg/mL in the assay with S. paratyphi 11737; 125 µg/mL (≈ 362 µM) in the assay on E. coli 9637; 31.3 µg/mL (≈ 90.6 µM) against S. aureus Smith; 31.3 µg/mL (≈ 90.6 µM) against S. aureus 53-180; > 250 µg/mL against P. vulgaris 6896; 1.95 µg/mL (≈ 5.65 µM) in the assay on N. catarrhalis 8193. Besides, the MIC in the assay with K. pneumoniae 10031 worked out at 15.6 µg/mL (≈ 45.2 µM).

Consider `Cc1noc(C)c1Cn1ccc2c3c(N)nc(N)nc3ccc21` [Example 52], for which the MIC was 1.95 µg/mL (≈ 6.32 µM) in the assay on S. paratyphi 11737; 0.976 µg/mL (≈ 3.17 µM) against E. coli 9637; 1.95 µg/mL (≈ 6.32 µM) with S. aureus Smith; 0.976 µg/mL (≈ 3.17 µM) against S. aureus 53-180; 3.9 µg/mL (≈ 12.6 µM) against P. vulgaris 6896; 0.0152 µg/mL (≈ 0.0493 µM) with N. catarrhalis 8193. In the assay on K. pneumoniae 10031, the lowest concentration to inhibit growth (MIC) was 0.244 µg/mL (≈ 0.791 µM).

Turning to `Nc1nc(N)c2c(ccc3c2ccn3CC=Cc2ccccc2)n1` [Example 57], the MIC with S. paratyphi 11737 worked out at 15.6 µg/mL (≈ 49.5 µM); against E. coli 9637 it was 3.9 µg/mL (≈ 12.4 µM); in the assay on S. aureus Smith, 1.95 µg/mL (≈ 6.18 µM); in the assay on S. aureus 53-180 it was 0.976 µg/mL (≈ 3.09 µM); against P. vulgaris 6896 it was 7.81 µg/mL (≈ 24.8 µM); with N. catarrhalis 8193, 0.122 µg/mL (≈ 0.387 µM). This compound also gave an MIC in the assay with K. pneumoniae 10031 of 0.488 µg/mL (≈ 1.55 µM).

As to `COc1cc(Cn2ccc3c4c(N)nc(N)nc4ccc32)cc(OC)c1` [Example 58], the MIC against S. paratyphi 11737 is 1.95 µg/mL (≈ 5.58 µM); with E. coli 9637, 0.976 µg/mL (≈ 2.79 µM); against S. aureus Smith it was 0.488 µg/mL (≈ 1.4 µM); against S. aureus 53-180, 0.244 µg/mL (≈ 0.698 µM); with P. vulgaris 6896, 15.6 µg/mL (≈ 44.6 µM); in the assay with N. catarrhalis 8193 it was 0.061 µg/mL (≈ 0.175 µM). Moreover, the MIC against K. pneumoniae 10031 is 0.122 µg/mL (≈ 0.349 µM).
